Consider 19 compounds from patent US11667651B2, “Aminopyridine derivatives as phosphatidylinositol phosphate kinase inhibitors” (HiberCell, Inc., priority 2017, dated 2023).

One test addresses T1, PIP4K2B (Homo sapiens, UniProt P78356).
T1 construct: made in house; host or cells: E. coli
T1 sequence (P78356 1-416): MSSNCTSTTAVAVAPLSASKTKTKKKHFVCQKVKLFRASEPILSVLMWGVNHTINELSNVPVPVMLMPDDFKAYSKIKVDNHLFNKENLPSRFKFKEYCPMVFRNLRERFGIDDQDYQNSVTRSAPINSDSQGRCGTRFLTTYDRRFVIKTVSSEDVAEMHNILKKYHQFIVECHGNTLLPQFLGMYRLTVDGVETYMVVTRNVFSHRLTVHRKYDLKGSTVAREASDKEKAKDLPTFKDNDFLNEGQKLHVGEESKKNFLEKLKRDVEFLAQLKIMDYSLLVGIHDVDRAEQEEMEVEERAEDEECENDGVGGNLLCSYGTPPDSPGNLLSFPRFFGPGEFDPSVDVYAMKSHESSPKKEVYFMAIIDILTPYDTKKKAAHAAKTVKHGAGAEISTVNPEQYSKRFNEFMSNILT
In words: Trans-FI P kinase assay PIP4K2B (Table 4). The test is classed as biochemical. The settings on record: compounds listed under IC50 bins; read-out: Trans-FI P kinase assays: PIP4K2B IC50. In a few lines: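 Transcreener FI detection (Ex 584/Em 623) of GDP, converted via calibration curve, gives IC50 from residual activity versus log concentration (highest 4.8 μM). Reaction: 80 μM PI5P plus DOPE carrier, 100 μM GTP, 5 nM GST-tagged enzyme, pH 7.3 HEPES with MgCl2 and 5% DMSO, 2 h after 1 h enzyme-compound preincubation at 27° C.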

For another test, the target named is T2, PIP4K2A (Homo sapiens, UniProt P48426).
T2 sequence (P48426 1-406): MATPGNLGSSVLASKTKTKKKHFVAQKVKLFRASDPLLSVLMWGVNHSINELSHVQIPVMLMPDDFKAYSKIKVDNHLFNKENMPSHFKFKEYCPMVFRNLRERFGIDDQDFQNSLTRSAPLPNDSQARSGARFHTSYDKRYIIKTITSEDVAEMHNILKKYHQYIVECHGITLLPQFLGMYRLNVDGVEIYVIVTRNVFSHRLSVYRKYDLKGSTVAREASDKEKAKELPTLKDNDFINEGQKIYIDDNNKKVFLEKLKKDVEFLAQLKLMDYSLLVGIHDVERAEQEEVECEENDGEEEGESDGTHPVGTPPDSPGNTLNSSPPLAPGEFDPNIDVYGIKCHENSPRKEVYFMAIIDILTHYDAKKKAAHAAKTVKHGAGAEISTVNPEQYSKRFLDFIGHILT
In words: ADP-glo kinase assay PIP4K 2A (Table 3). The settings on record: compounds listed under IC50 bins. The test is classed as biochemical. More on the design: made in house; host or cells: E. coli. The method, then: Dilution series of the compounds were prepared in DMSO at 100 times the final assay concentration (n1=n0/3 in 10 points). The compounds were further diluted to three times the assay concentration in assay buffer (20 mM MOPS pH 7.2, 25 mM magnesium chloride, 0.005% Tween 20). 6 μL of the diluted compounds were added to a 384 well assay plate followed by 9 μL of a mix consisting of 4 nM PIP4K2A (full length protein, SignalChem) and 100 μM PI(5)P diC8 (Tebu-Bio). Enzyme and compounds were pre-incubated at room temperature for 15 minutes.
Then 3 μL of a solution containing 60 μM ATP (Promega) in assay buffer was added to the wells containing compound and enzyme and mixing was performed by pipetting several times. The reaction was incubated at room temperature for 1 h. Then 18 μL of ADP-Glo™ Reagent (Promega) was added to stop the kinase reaction and deplete the unconsumed ATP, mixing was performed by pipetting several times. The plate was incubated at room temperature for 40 minutes before addition of 36 μL of Kinase Detection Reagent (Promega) to convert ADP to ATP and introduce luciferase and luciferin to detect ATP. The reaction was incubated at room temperature for 40 minutes before the luminescence was measured in a in a Victor 3V 1420 multilabel counter (Perkin Elmer).
Percent inhibition of the compounds as compared to dimethyl sulfoxide treated control samples was calculated. Compound concentration versus percent inhibition were fitted to generate IC50 values. […]
(In ADP-Glo the light output rises with the ADP produced.)

In general, IC50 refers to the concentration that inhibits the measured activity by half. As to `O=C1CCCN1c1ccc(-c2cnc(Nc3cnc4c(c3)N3C(=O)C5(CC5)C[C@H]3CO4)cc2C2CC2)cc1` [Example 211, (S)-2′-((4-cyclopropyl-5-(4-(2-oxopyrrolidin-1-yl)phenyl)pyridin-2-yl)amino)-6a′,7′-dihydro-6′H,9′H-spiro[cyclopropane-1,8′-pyrido[2,3-b]pyrrolo[1,2-d][1,4]oxazin]-9′-one], the IC50 at PIP4K2B was 1 to 10 nM; on PIP4K2A it was at most 1 nM.

Take `COc1cc(Nc2cnc3c(c2)N2C(=O)C4(CC4)C[C@H]2CO3)ncc1-c1ccc(N2CCCC2=O)cc1` [Example 212, (S)-2′-((4-methoxy-5-(4-(2-oxopyrrolidin-1-yl)phenyl)pyridin-2-yl)amino)-6a′,7′-dihydro-6′H,9′H-spiro[cyclopropane-1,8′-pyrido[2,3-b]pyrrolo[1,2-d][1,4]oxazin]-9′-one]: the 50% inhibitory concentration (IC50) is 1 to 10 nM on PIP4K2B and at most 1 nM against PIP4K2A.

In the case of `CC(C)c1nc(Nc2cnc3c(c2)N2C(=O)C4(CC4)C[C@H]2CO3)ncc1-c1ccc(N2CCCC2=O)cc1` [Example 216, (S)-2′-((4-isopropyl-5-(4-(2-oxopyrrolidin-1-yl)phenyl)pyrimidin-2-yl)amino)-6a′,7′-dihydro-6′H,9′H-spiro[cyclopropane-1,8′-pyrido[2,3-b]pyrrolo[1,2-d][1,4]oxazin]-9′-one], the IC50 on PIP4K2B is 1 to 10 nM; on PIP4K2A, at most 1 nM.

With `O=C([C@@H]1CCOC1)N1CCN(c2cncc(Nc3ccc(-c4ccc(N5CCCC5=O)cc4)cn3)c2)CC1` [Example 244, (R)-1-(4-(6-((5-(4-(tetrahydrofuran-3-carbonyl)piperazin-1-yl)pyridin-3-yl)amino)pyridin-3-yl)phenyl)pyrrolidin-2-one], the IC50 on PIP4K2B lay within 10 to 100 nM; against PIP4K2A it was 100 to 1000 nM.

On to `O=C([C@H]1CCOC1)N1CCN(c2cncc(Nc3ccc(-c4ccc(N5CCCC5=O)cc4)cn3)c2)CC1` [Example 245, (S)-1-(4-(6-((5-(4-(tetrahydrofuran-3-carbonyl)piperazin-1-yl)pyridin-3-yl)amino)pyridin-3-yl)phenyl)pyrrolidin-2-one], for which the concentration for half-maximal inhibition (IC50) on PIP4K2B fell in the range of 10 to 100 nM; at PIP4K2A, 100 to 1000 nM.

Consider `O=C(Nc1cncc(Nc2ccc(-c3ccc(N4CCCC4=O)cc3)cn2)c1)C1CC1c1ccccc1` (centres unmarked) [Example 247, N-(5-((5-(4-(2-oxopyrrolidin-1-yl)phenyl)pyridin-2-yl)amino)pyridin-3-yl)-2-phenylcyclopropane-1-carboxamide], for which the IC50 at PIP4K2B was 10 to 100 nM; at PIP4K2A, 1 to 10 nM.

As for `CCOc1ccc(C(=O)Nc2cncc(Nc3ccc(-c4ccc(N5CCCC5=O)cc4)cn3)c2)cn1` [Example 249, 6-ethoxy-N-(5-((5-(4-(2-oxopyrrolidin-1-yl)phenyl)pyridin-2-yl)amino)pyridin-3-yl)nicotinamide], the IC50 at PIP4K2B fell in the range of 10 to 100 nM; on PIP4K2A, 1 to 10 nM.

For `CC1CN(C(=O)Nc2cncc(Nc3ccc(-c4ccc(N5CCCC5=O)cc4)cn3)c2)CCO1` (centres unmarked) [Example 250, 2-methyl-N-(5-((5-(4-(2-oxopyrrolidin-1-yl)phenyl)pyridin-2-yl)amino)pyridin-3-yl)morpholine-4-carboxamide], the IC50 at PIP4K2B is 10 to 100 nM; against PIP4K2A, 100 to 1000 nM.

Turning to `O=C(Nc1cncc(Nc2ccc(-c3ccc(N4CCCC4=O)cc3)cn2)c1)N1CCOCC1` [Example 251, N-(5-((5-(4-(2-oxopyrrolidin-1-yl)phenyl)pyridin-2-yl)amino)pyridin-3-yl)morpholine-4-carboxamide], the 50% inhibitory concentration (IC50) on PIP4K2B was in the range of 10 to 100 nM; against PIP4K2A, 100 to 1000 nM.

With `COc1cc(C(=O)Nc2cncc(Nc3ccc(-c4ccc(N5CCCC5=O)cc4)cn3)c2)c2[nH]cnc2c1` [Example 253, 5-methoxy-N-(5-((5-(4-(2-oxopyrrolidin-1-yl)phenyl)pyridin-2-yl)amino)pyridin-3-yl)-1H-benzo[d]imidazole-7-carboxamide], the concentration for half-maximal inhibition (IC50) at PIP4K2B and on PIP4K2A was 10 to 100 nM in each case.

As to `O=C(Nc1cncc(Nc2ccc(-c3ccc(N4CCCC4=O)cc3)cn2)c1)c1nn[nH]n1` [Example 254, N-(5-((5-(4-(2-oxopyrrolidin-1-yl)phenyl)pyridin-2-yl)amino)pyridin-3-yl)-2H-tetrazole-5-carboxamide], the 50% inhibitory concentration (IC50) on PIP4K2B and on PIP4K2A was 10 to 100 nM in each case.

As to `CC1(C)C[C@H]2COc3ncc(Nc4ccc(-c5ccc(N6CCCC6=O)cc5)cn4)cc3N2C1=O` [Example 255, (S)-8,8-dimethyl-2-((5-(4-(2-oxopyrrolidin-1-yl)phenyl)pyridin-2-yl)amino)-6,6a,7,8-tetrahydro-9H-pyrido[2,3-b]pyrrolo[1,2-d][1,4]oxazin-9-one], the figures for the IC50 at PIP4K2B and at PIP4K2A were 10 to 100 nM and 1 to 10 nM, respectively.

Take `CC1CN(C(=O)Nc2cncc(Nc3ccc(-c4ccc(N5CCCC5=O)cc4)cn3)c2)CCN1` (centres unmarked) [Example 256, 3-methyl-N-(5-((5-(4-(2-oxopyrrolidin-1-yl)phenyl)pyridin-2-yl)amino)pyridin-3-yl)piperazine-1-carboxamide]: the IC50 on PIP4K2B and at PIP4K2A was 10 to 100 nM in each case.

In the case of `O=C(Nc1cncc(Nc2ccc(-c3ccc(N4CCCC4=O)cc3)cn2)c1)N1CCNC(C2CC2)C1` (centres unmarked) [Example 257, 3-cyclopropyl-N-(5-((5-(4-(2-oxopyrrolidin-1-yl)phenyl)pyridin-2-yl)amino)pyridin-3-yl)piperazine-1-carboxamide], the IC50 at PIP4K2B fell in the range of 10 to 100 nM; against PIP4K2A it was 100 to 1000 nM.

On to `CC1C[C@H]2COc3ncc(Nc4ccc(-c5ccc(N6CCCC6=O)cc5)cn4)cc3N2C1=O` (stereo partly drawn) [Example 259, (6aS)-8-methyl-2-((5-(4-(2-oxopyrrolidin-1-yl)phenyl)pyridin-2-yl)amino)-6,6a,7,8-tetrahydro-9H-pyrido[2,3-b]pyrrolo[1,2-d][1,4]oxazin-9-one], for which the IC50 on PIP4K2B and against PIP4K2A was 10 to 100 nM throughout.

Turning to `O=C1CCCN1c1ccc(-c2ccc(Nc3cnc4c(c3)N3C(=O)C5(CC5)C[C@H]3CO4)nc2)cc1` [Example 260, (S)-2′-((5-(4-(2-oxopyrrolidin-1-yl)phenyl)pyridin-2-yl)amino)-6a′,7′-dihydro-6′H,9′H-spiro[cyclopropane-1,8′-pyrido[2,3-b]pyrrolo[1,2-d][1,4]oxazin]-9′-one], the IC50 at PIP4K2B and against PIP4K2A was 1 to 10 nM each time.

Turning to `CC1C[C@H]2COc3ncc(Nc4ccc(-c5ccc(N6CCCC6=O)c(F)c5)cn4)cc3N2C1=O` (stereo partly drawn) [Example 261, (6aS)-2-((5-(3-fluoro-4-(2-oxopyrrolidin-1-yl)phenyl)pyridin-2-yl)amino)-8-methyl-6,6a,7,8-tetrahydro-9H-pyrido[2,3-b]pyrrolo[1,2-d][1,4]oxazin-9-one], the IC50 at PIP4K2B was in the range of 10 to 100 nM; against PIP4K2A, 1 to 10 nM.

Take `O=C(Nc1cncc(Nc2ccc(-c3ccc(N4CCCC4=O)cc3)cn2)c1)N1CCOC(C2CC2)C1` (centres unmarked) [Example 262, 2-cyclopropyl-N-(5-((5-(4-(2-oxopyrrolidin-1-yl)phenyl)pyridin-2-yl)amino)pyridin-3-yl)morpholine-4-carboxamide]: the IC50 lay within 10 to 100 nM on PIP4K2B and 100 to 1000 nM at PIP4K2A.

As to `O=C1CCCN1c1ccc(-c2ccc(Nc3cnc4c(c3)N3C(=O)OC[C@H]3CO4)nc2)cc1` [Example 265, (R)-8-((5-(4-(2-oxopyrrolidin-1-yl)phenyl)pyridin-2-yl)amino)-3a,4-dihydro-1H,3H-oxazolo[3,4-d]pyrido[2,3-b][1,4]oxazin-1-one], the IC50 on PIP4K2B lay in the range of 10 to 100 nM; against PIP4K2A, 1 to 10 nM.
